Results from paper PMC4822313, “Modulating the import of medium-chain alkanes in E. coli through tuned expression of FadL” (Journal of Biological Engineering, 2016).

Molecular target: T1, AlkBGT alkane monooxygenase complex (Ectopseudomonas oleovorans, UniProt P12691)
T1 construct: gene alkB; inner membrane AlkB with rubredoxin AlkG and reductase AlkT; expressed in E. coli from pGEc41; with Rubredoxin-2; Rubredoxin-NAD(+) reductase
T1 sequence (P12691 1-401): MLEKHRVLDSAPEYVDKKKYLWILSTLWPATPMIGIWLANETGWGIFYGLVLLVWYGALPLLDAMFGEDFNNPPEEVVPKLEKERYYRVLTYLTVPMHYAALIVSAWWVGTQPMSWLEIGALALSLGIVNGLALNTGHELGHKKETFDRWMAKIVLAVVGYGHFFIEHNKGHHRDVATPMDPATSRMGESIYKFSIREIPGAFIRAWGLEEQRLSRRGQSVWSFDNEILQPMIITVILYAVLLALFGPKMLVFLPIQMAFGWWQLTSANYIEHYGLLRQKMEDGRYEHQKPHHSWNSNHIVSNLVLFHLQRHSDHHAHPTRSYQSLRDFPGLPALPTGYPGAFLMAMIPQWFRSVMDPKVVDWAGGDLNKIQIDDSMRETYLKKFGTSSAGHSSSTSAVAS
Assay: whole-cell oxidation, GC-FID of products
Type: cell-based
Conditions: 30 % (v/v) octane, 37 °C, E. coli with pGEc41

## CCCCCCCCO [1-octanol]
  whole-cell oxidation, GC-FID of products: The synthesis of 1-octanol and 1-octanal is attributed to AlkB
